Experimental data: patent publication US10273503B2, “Compounds and methods for enhancing viral gene transfer to human hematopoietic cells” (UNIVERSTÉ DE MONTRÉAL, priority 2015, dated 2019)
Where two headings read alike, the source gives them in different places.

How the values were obtained:
human CD34+ CB cells = type: cell-based; details: prestimulated 16 hours and transduced 6 hours in presence of compound, FACS after 3 additional days (FIGS. 16A, 16B)
Experimental: The cells were then exposed for 6 hours to a GFP lentiviral vector (10^6 iu/mL) in the same medium. […] At the end of the culture media, cells were harvested, stained for CD34 and analysed by flow cytometry.
The vector constructs were sequence-verified. […] Virus-containing supernatants were concentrated by ultracentrifugation to achieve titers of 0.5×10^9 to 5×10^9 infectious units/ml. Viral titers were determined by transducing HeLa cells with three dilutions of the lentiviral vector.
Umbilical cord blood (CB) and mobilized peripheral blood (mPB) cells were collected with consent according to procedures approved by the Research Ethics Board of the University of British Columbia. CD34^+ enriched adult bone marrow cells were purchased from […] Technologies. CD34^+ CB and mPB cells were enriched to >90% purity using first RosetteSep™ CD34 preenrichment cocktail ([…] Technologies) followed by positive selection using magnetic beads (EasySep kit, […] Technologies). In some cases additional enrichment was done by sorting CD34^+ cells using an Influx II sorter (BD Bioscience). […] All flow cytometric analysis was performed using a LSRII Fortessa® (BD Biosciences).

human CD34+ cells = experiment: Expansion of human CD34+ cells (EC50, CD34+CD45RA- cell count); type: cell-based; details: concentration that results in a 50% increase in CD34+CD45RA- cell count compared to vehicle cultures (DMSO); for EC50: read-out: Biological data (EC50)*

| Compound | EC50 (human CD34+ cells; Homo sapiens) | further results |
| --- | --- | --- |
| COC(=O)c1ccc2c(c1)[nH]c1nc(Cc3ccccc3)nc(N(C)CCCN3CCCCC3)c12 [Cmpd 3] | < 100 nM | gene transfer efficiency to human CD34+ CB cells and CD34+ subsets, variants of Cmpd1 (human CD34+ CB cells): increase gene transfer efficiency |
| COC(=O)c1ccc2c(c1)[nH]c1nc(Cc3cccc(F)c3)nc(NCCCN3CCCCC3)c12 [Cmpd 4] | < 100 nM | gene transfer efficiency to human CD34+ CB cells and CD34+ subsets, variants of Cmpd1 (human CD34+ CB cells): increase gene transfer efficiency |
| CN(CCCNC(=O)CNC(=O)CNC(=O)CN)CCCNc1nc(Cc2ccccc2)nc2[nH]c3cc(-c4nnn(C)n4)ccc3c12 [Cmpd 5, 2-amino-N-(2-((2-((3-((3-((2-benzyl-7-(2-methyl-2H-tetrazol-5-yl)-9H-pyrimido[4,5-b]indol-4-yl)amino)propyl)(methyl)amino)propyl)amino)-2-oxoethyl)amino)-2-oxoethyl)acetamide] | 250 to 500 nM | gene transfer efficiency to human CD34+ CB cells and CD34+ subsets, variants of Cmpd1 (human CD34+ CB cells): increase gene transfer efficiency |
| COC(=O)c1ccc2c(c1)[nH]c1nc(Cc3ccccc3)nc(SCCCN3CCCCC3)c12 [Cmpd 6, methyl 2-benzyl-4-((3-(piperidin-1-yl)propyl)thio)-9H-pyrimido[4,5-b]indole-7-carboxylate] | 250 to 500 nM | gene transfer efficiency to human CD34+ CB cells and CD34+ subsets, variants of Cmpd1 (human CD34+ CB cells): increase gene transfer efficiency |
| Cc1noc(-c2ccc3c(c2)[nH]c2nc(Cc4ccccc4)nc(NCCCN4CCCCC4)c23)n1.Cl [Cmpd 42] |  | Biological data (EC50)* (human CD34+ cells): F (F = compound showed >1.3 fold expansion) |
| N#Cc1ccc2c(c1)[nH]c1nc(Cc3ccccc3)nc(NCCCN3CCCCC3)c12 [Cmpd 43] | 250 to 500 nM |  |
| COC(=O)c1ccc2c(c1)[nH]c1ncnc(NC3CCC(N)CC3)c12 (stereo not shown) [Cmpd 44] |  | EC50 (human CD34+ cells): 100 to 250 nM |
| COC(=O)c1ccc2c(c1)[nH]c1ncnc(NC3CCC(N)CC3)c12 (stereo not shown) [Cmpd 45] |  | EC50 (human CD34+ cells): 250 to 500 nM |
| CN(C)C1CCC(Nc2nc(Cc3ccccc3)nc3[nH]c4cc(-c5nnn(C)n5)ccc4c23)CC1 (stereo not shown) [Cmpd 46] | < 100 nM |  |
| COC(=O)c1ccc2c(c1)[nH]c1nc(Cc3ccccc3)nc(OCCCN3CCCCC3)c12 [Cmpd 47] | 500 to 1000 nM |  |
| COC(=O)c1ccc2c(c1)[nH]c1nc(Cc3ccccc3)nc(CCCCN3CCCCC3)c12 [Cmpd 48] |  | Biological data (EC50)* (human CD34+ cells): F (F = compound showed >1.3 fold expansion) |
| COC(=O)c1ccc2c(c1)[nH]c1nc(Cc3ccccc3)nc(NCCCN(C)CCOCCOCCO)c12 [Cmpd 49] | < 100 nM |  |
| COC(=O)c1ccc2c(c1)[nH]c1nc(Cc3ccccc3)nc(NCCCN(C)CCCN)c12 [Cmpd 50] | < 100 nM |  |
| COC(=O)c1ccc2c(c1)[nH]c1nc(Cc3ccccc3)nc(NCC(O)CN3CCCCC3)c12 (stereo not shown) [Cmpd 51] | < 100 nM |  |
| C#CCOC(CNc1nc(Cc2ccccc2)nc2[nH]c3cc(C(=O)OC)ccc3c12)CN1CCCCC1 (stereo not shown) [Cmpd 52] | < 100 nM |  |
| CCN(CCCN1CCCCC1)c1nc(Cc2ccccc2)nc2[nH]c3cc(C(=O)OC)ccc3c12 [Cmpd 53] | > 1000 nM |  |
| C#CCNCCCN(C)CCCNc1nc(Cc2ccccc2)nc2[nH]c3cc(C(=O)OC)ccc3c12 [Cmpd 54] |  | Biological data (EC50)* (human CD34+ cells): F (F = compound showed >1.3 fold expansion) |
| COC(=O)c1ccc2c(c1)[nH]c1nc(Cc3ccccc3)nc(NCCCN(C)CCCNC(=O)CCCC[C@@H]3SC[C@@H]4NC(=O)N[C@@H]43)c12 [Cmpd 56] | 250 to 500 nM |  |
| COC(=O)c1ccc2c(c1)[nH]c1nc(Cc3cccc(C4(C(F)(F)F)N=N4)c3)nc(NCCCN(C)CCCNC(=O)CCCCC3SCC4NC(=O)NC43)c12 (stereo not shown) [Cmpd 57] |  | Biological data (EC50)* (human CD34+ cells): F (F = compound showed >1.3 fold expansion) |
| COC(=O)c1ccc2c(c1)[nH]c1nc(C)nc(NCCCN3CCCCC3)c12 [Cmpd 58] | > 1000 nM |  |
| CNC(=O)c1ccc2c(c1)[nH]c1nc(Cc3ccccc3)nc(NCCCN3CCCCC3)c12 [Cmpd 59] | > 1000 nM |  |
| COC(=O)c1cnc2c(c1)[nH]c1nc(Cc3ccccc3)nc(NCCCN3CCCCC3)c12 [Cmpd 60] | 250 to 500 nM |  |
| COC(=O)c1cnc2c(c1)[nH]c1nc(Cc3ccsc3)nc(NCCCN3CCCCC3)c12 [Cmpd 61] | 250 to 500 nM |  |
| COC(=O)c1cnc2c(c1)[nH]c1nc(Cc3ccsc3)nc(SCCCN3CCCCC3)c12 [Cmpd 62] | 500 to 1000 nM |  |
| COC(=O)c1cnc2c(c1)[nH]c1nc(Cc3cccc(OC)c3)nc(NCCCN3CCCCC3C)c12 (stereo not shown) [Cmpd 63] | 250 to 500 nM |  |
| CCN(CC)CCNc1nc(Cc2cccc(OC)c2)nc2[nH]c3cc(C(=O)OC)cnc3c12 [Cmpd 64] | 500 to 1000 nM |  |
| COC(=O)c1cnc2c(c1)[nH]c1nc(Cc3ccccc3)nc(N(C)CCCN3CCCCC3)c12 [Cmpd 65] | < 100 nM |  |
| COC(=O)c1cnc2c(c1)[nH]c1nc(Cc3ccccc3C)nc(NCCCN3CCCCC3)c12 [Cmpd 66] | 250 to 500 nM |  |
| COC(=O)c1cnc2c(c1)[nH]c1nc(Cc3ccccc3C)nc(NCCCN3CCCC3)c12 [Cmpd 67] | 250 to 500 nM |  |

Second part, led by results:

| EC50 (human CD34+ cells; Homo sapiens) | Compound | further results |
| --- | --- | --- |
| 500 to 1000 nM | CNCCCNc1nc(Cc2ccccc2C)nc2[nH]c3cc(C(=O)OC)cnc3c12 [Cmpd 68] |  |
| 250 to 500 nM | Cn1nnc(-c2cnc3c(c2)[nH]c2nc(Cc4ccccc4)nc(N[C@H]4CC[C@H](N)CC4)c23)n1 [Cmpd 69] |  |
| > 1000 nM | COC(=O)c1cnc2c(c1)[nH]c1nc(Cc3cccc(F)c3)nc(NCCCN3CCCCC3)c12 [Cmpd 70] |  |
| 250 to 500 nM | COC(=O)c1cnc2c(c1)[nH]c1nc(Cc3cccc(F)c3)nc(NCCCN(C)CCCN)c12 [Cmpd 71] |  |
| > 1000 nM | CNCCCNc1nc(Cc2cccc(F)c2)nc2[nH]c3cc(C(=O)OC)cnc3c12 [Cmpd 72] |  |
| 500 to 1000 nM | COC(=O)c1cnc2c(c1)[nH]c1nc(Cc3ccccc3)nc(NCC(C)CN(C)C)c12 (stereo not shown) [Cmpd 73] |  |
| 100 to 250 nM | COC(=O)c1cnc2c(c1)[nH]c1nc(Cc3ccccc3)nc(N3CCC(N(C)C)CC3)c12 [Cmpd 74] |  |
| 250 to 500 nM | CCN(CC)CCN(CC)c1nc(Cc2ccccc2)nc2[nH]c3cc(C(=O)OC)cnc3c12 [Cmpd 75] |  |
| > 1000 nM | COC(=O)c1ccc2c(c1)[nH]c1ccnc(NCCCN3CCCCC3)c12 [Cmpd 76] |  |
| < 100 nM | COC(=O)c1ccc2c(c1)[nH]c1cc(Cc3ccccc3)nc(NCCCN3CCCCC3)c12 [Cmpd 77] |  |
| < 100 nM | COC(=O)c1ccc2c(c1)[nH]c1cc(Cc3ccccc3)nc(NCCN3CCCC3)c12 [Cmpd 78] |  |
| < 100 nM | COC(=O)c1ccc2c(c1)[nH]c1cc(Cc3ccccc3)nc(N(C)CCCN(C)C)c12 [Cmpd 79] |  |
| 100 to 250 nM | Cn1nnc(-c2ccc3c(c2)[nH]c2cc(Cc4ccccc4)nc(NCCCN4CCCCC4)c23)n1 [Cmpd 80] |  |
| < 100 nM | COC(=O)c1ccc2c(c1)[nH]c1cc(Cc3cccc(OC)c3)nc(NCCCCN3CCCC3)c12 [Cmpd 81] |  |
| < 100 nM | COC(=O)c1ccc2c(c1)[nH]c1cc(Cc3cccc(O)c3)nc(NCCCCN3CCCC3)c12 [Cmpd 82] |  |
| > 1000 nM | COC(=O)c1ccc2c(c1)[nH]c1cc(Cc3ccsc3)nc(NCCN(C)CCNC(=O)OC(C)(C)C)c12 [Cmpd 83] |  |
| 500 to 1000 nM | COC(=O)c1ccc2c(c1)[nH]c1cc(Cc3cccnc3)nc(NCCCN3CCOCC3)c12 [Cmpd 84] |  |
| 100 to 250 nM | COC(=O)c1ccc2c(c1)[nH]c1cc(Cc3ccsc3)nc(NCCCN3CCCCC3)c12 [Cmpd 85] |  |
| > 1000 nM | COC(=O)c1ccc2c(c1)[nH]c1cc(Cc3cccnc3)nc(N3CCC(N4CCCC4)CC3)c12 [Cmpd 86] |  |
| > 1000 nM | CNCCCN(C)c1nc(Cc2cccnc2)cc2[nH]c3cc(C(=O)OC)ccc3c12 [Cmpd 87] |  |
| 100 to 250 nM | COC(=O)c1ccc2c(c1)[nH]c1cc(Cc3ccsc3)nc(N[C@H]3CC[C@H](N)CC3)c12 [Cmpd 88] |  |
| 250 to 500 nM | COC(=O)c1ccc2c(c1)[nH]c1cc(Cc3ccsc3)nc(NCCN(C)CCN)c12 [Cmpd 89] |  |
